Assay results published in PubChem BioAssay (NCI).
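Method: 48-hour compound exposure of cells in 96-well plates, five concentrations, linear interpolation of endpoints. Abbreviation: GI50, concentration required for 50% inhibition of growth. TGI marks complete inhibition of growth.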

Columns and labels:
Assay in all cases: NCI-60 cell line screen, 48 h
NCI-H226 lung = tested on: NCI-H226 lung
NCI-H23 lung = tested on: NCI-H23 lung
NCI-H460 lung = tested on: NCI-H460 lung
NCI-H522 lung = tested on: NCI-H522 lung
NCI/ADR-RES ovarian = tested on: NCI/ADR-RES ovarian
OVCAR-3 ovarian = tested on: OVCAR-3 ovarian
OVCAR-4 ovarian = tested on: OVCAR-4 ovarian
OVCAR-5 ovarian = tested on: OVCAR-5 ovarian
OVCAR-8 ovarian = tested on: OVCAR-8 ovarian
PC-3 prostate = tested on: PC-3 prostate
RPMI-8226 leukemia = tested on: RPMI-8226 leukemia
RXF 393 renal = tested on: RXF 393 renal
SF-268 CNS = tested on: SF-268 CNS
SF-295 CNS = tested on: SF-295 CNS
SF-539 CNS = tested on: SF-539 CNS
SK-MEL-2 melanoma = tested on: SK-MEL-2 melanoma
SK-MEL-28 melanoma = tested on: SK-MEL-28 melanoma
SK-MEL-5 melanoma = tested on: SK-MEL-5 melanoma
SK-OV-3 ovarian = tested on: SK-OV-3 ovarian
SN12C renal = tested on: SN12C renal
SNB-19 CNS = tested on: SNB-19 CNS
SNB-75 CNS = tested on: SNB-75 CNS
SR leukemia = tested on: SR leukemia
SW-620 colon = tested on: SW-620 colon
T-47D breast = tested on: T-47D breast
TK-10 renal = tested on: TK-10 renal
U251 CNS = tested on: U251 CNS
UACC-257 melanoma = tested on: UACC-257 melanoma
UACC-62 melanoma = tested on: UACC-62 melanoma
UO-31 renal = tested on: UO-31 renal

O=c1cc(-c2ccccc2)oc2cc(OCCCC[P+](c3ccccc3)(c3ccccc3)c3ccccc3)cc(O)c12
TGI (NCI-H226 lung): 4.2 µM
GI50 (NCI-H23 lung): 1.1 µM
TGI (NCI-H23 lung): 2.74 µM
GI50 (NCI-H460 lung): 0.509 µM
TGI (NCI-H460 lung): 1.81 µM
GI50 (NCI-H522 lung): 0.789 µM
TGI (NCI-H522 lung): 2.54 µM
GI50 (NCI/ADR-RES ovarian): 3.29 µM
TGI (NCI/ADR-RES ovarian): > 100 µM
GI50 (OVCAR-3 ovarian): 0.526 µM
TGI (OVCAR-3 ovarian): 2.22 µM
GI50 (OVCAR-4 ovarian): 0.549 µM
TGI (OVCAR-4 ovarian): 6.76 µM
GI50 (OVCAR-5 ovarian): 1.58 µM
TGI (OVCAR-5 ovarian): 5.11 µM
GI50 (OVCAR-8 ovarian): 1.04 µM
TGI (OVCAR-8 ovarian): 6.1 µM
GI50 (PC-3 prostate): 0.899 µM
TGI (PC-3 prostate): 2.7 µM
GI50 (RPMI-8226 leukemia): 0.303 µM
TGI (RPMI-8226 leukemia): 1.82 µM
GI50 (RXF 393 renal): 0.707 µM
TGI (RXF 393 renal): 2.15 µM
GI50 (SF-268 CNS): 1.29 µM
TGI (SF-268 CNS): 3.56 µM
GI50 (SF-295 CNS): 1.41 µM
TGI (SF-295 CNS): 2.76 µM
GI50 (SF-539 CNS): 0.892 µM
TGI (SF-539 CNS): 2.15 µM
GI50 (SK-MEL-2 melanoma): 0.238 µM
TGI (SK-MEL-2 melanoma): 0.603 µM
GI50 (SK-MEL-28 melanoma): 0.601 µM
TGI (SK-MEL-28 melanoma): 1.83 µM
GI50 (SK-MEL-5 melanoma): 0.276 µM
TGI (SK-MEL-5 melanoma): 0.693 µM
GI50 (SK-OV-3 ovarian): 0.728 µM
TGI (SK-OV-3 ovarian): 1.92 µM
GI50 (SN12C renal): 0.603 µM
TGI (SN12C renal): 1.66 µM
GI50 (SNB-19 CNS): 0.41 µM
TGI (SNB-19 CNS): 1.42 µM
GI50 (SNB-75 CNS): 0.419 µM
TGI (SNB-75 CNS): 1.68 µM
GI50 (SR leukemia): 0.834 µM
TGI (SR leukemia): > 100 µM
GI50 (SW-620 colon): 0.997 µM
TGI (SW-620 colon): 2.67 µM
GI50 (T-47D breast): 0.273 µM
TGI (T-47D breast): 2.77 µM
GI50 (TK-10 renal): 0.903 µM
TGI (TK-10 renal): 3.27 µM
GI50 (U251 CNS): 0.716 µM
TGI (U251 CNS): 2.16 µM
GI50 (UACC-257 melanoma): 0.548 µM
TGI (UACC-257 melanoma): 1.9 µM
GI50 (UACC-62 melanoma): 0.573 µM
TGI (UACC-62 melanoma): 1.56 µM
GI50 (UO-31 renal): 1.39 µM
TGI (UO-31 renal): 2.89 µM
